Reference: ChEMBL document CHEMBL1201862, “PubChem BioAssay data set” (2004)
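48-hour exposure; five concentrations; linearly interpolated endpoints. The concentration for 50% growth inhibition is given as GI50.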 The source made the active and inactive calls. Cut-off read from the data, not from the text of the source: active = GI50 up to about 1.1 µM and inactive = higher.

Assays:
Assay in all cases: DTP human tumour cell line panel, 48 h
EKVX = system: EKVX
NCI-H23 = system: NCI-H23
RPMI-8226 = system: RPMI-8226
SNB-75 = system: SNB-75
UACC-62 = system: UACC-62
HT-29 = system: HT-29
A498 = system: A498
SF-539 = system: SF-539
SK-MEL-2 = system: SK-MEL-2
HCC 2998 = system: HCC 2998
MOLT-4 = system: MOLT-4
CCRF-CEM = system: CCRF-CEM
HOP-62 = system: HOP-62
ACHN = system: ACHN
NCI-H522 = system: NCI-H522
HOP-92 = system: HOP-92
OVCAR-5 = system: OVCAR-5
HCT-116 = system: HCT-116
SF-268 = system: SF-268
K562 = system: K562

Measured: GI50

N#C[C@H](c1ccccn1)c1nc2ccccc2nc1Cl
inactive: EKVX > 100 µM | NCI-H23 > 100 µM | RPMI-8226 > 100 µM | SNB-75 > 100 µM | UACC-62 > 100 µM | HT-29 > 100 µM | A498 > 100 µM | SF-539 > 100 µM | SK-MEL-2 > 100 µM | HCC 2998 > 100 µM | MOLT-4 > 100 µM | CCRF-CEM > 100 µM | HOP-62 > 100 µM | ACHN > 100 µM | NCI-H522 > 100 µM | HOP-92 > 100 µM | OVCAR-5 > 100 µM | HCT-116 > 100 µM

Cc1cc(S(=O)(=O)NC2=NCc3nc4ccccc4n32)c(S)cc1Cl
inactive: EKVX 29.3 µM | SF-268 32 µM | RPMI-8226 20.3 µM | SNB-75 24.2 µM | K562 42.9 µM | UACC-62 17.1 µM | A498 26.9 µM | SF-539 20.7 µM | SK-MEL-2 13.5 µM | HCC 2998 17.2 µM | MOLT-4 19.6 µM | CCRF-CEM 31.6 µM | ACHN 32.4 µM | NCI-H522 34.9 µM | HOP-92 18.7 µM | OVCAR-5 20.7 µM | HCT-116 18.3 µM

COc1ccc(-c2c(-c3ccccc3)c(C)c3ccccn23)cc1
inactive: EKVX 99.5 µM | NCI-H23 > 100 µM | RPMI-8226 47.6 µM | SNB-75 > 100 µM | K562 50 µM | UACC-62 > 100 µM | HT-29 33.4 µM | A498 > 100 µM | SF-539 > 100 µM | SK-MEL-2 33 µM | HCC 2998 > 100 µM | MOLT-4 59.6 µM | CCRF-CEM 28.2 µM | HOP-62 > 100 µM | ACHN > 100 µM | NCI-H522 57.7 µM | HOP-92 > 100 µM | OVCAR-5 > 100 µM | HCT-116 72.3 µM

Cc1cc2nc3c(C(O)CO)nn(-c4ccccc4)c3nc2cc1C (configuration not stated)
inactive: EKVX 19.6 µM | SF-268 23.7 µM | NCI-H23 23 µM | RPMI-8226 6.21 µM | SNB-75 22.4 µM | K562 12.9 µM | HT-29 15 µM | A498 12.1 µM | SF-539 20.7 µM | SK-MEL-2 21.4 µM | MOLT-4 4.3 µM | HOP-62 19.4 µM | ACHN 14.4 µM | NCI-H522 22.6 µM | HOP-92 15.5 µM | OVCAR-5 22.3 µM | HCT-116 15.3 µM

CC12CCC3C(CCC4CC(OC(=O)Cc5ccc(N(CCCl)CCCl)cc5)CCC43C)C1CCC(=O)N2 (configuration not stated)
inactive: EKVX 16.4 µM | SF-268 17.1 µM | NCI-H23 13 µM | RPMI-8226 15.2 µM | SNB-75 15 µM | K562 16.9 µM | HT-29 16.4 µM | A498 16.8 µM | SF-539 15.1 µM | SK-MEL-2 15.5 µM | HCC 2998 18.9 µM | MOLT-4 7.41 µM | CCRF-CEM 6.25 µM | ACHN 11.2 µM | NCI-H522 14.7 µM | HOP-92 16.1 µM | HCT-116 15.1 µM

O=C1C2c3[nH]c4ccccc4c3C3CCSCC3C2C(=O)N1c1ccccc1 (configuration not stated)
inactive: EKVX > 100 µM | SF-268 > 100 µM | NCI-H23 > 100 µM | RPMI-8226 > 100 µM | SNB-75 15.9 µM | K562 72.9 µM | UACC-62 > 100 µM | HT-29 > 100 µM | A498 > 100 µM | SF-539 59.2 µM | SK-MEL-2 > 100 µM | MOLT-4 87.3 µM | CCRF-CEM > 100 µM | HOP-62 > 100 µM | ACHN > 100 µM | NCI-H522 > 100 µM | HOP-92 > 100 µM | OVCAR-5 > 100 µM | HCT-116 > 100 µM

O=C1CCCCCCCCCCOC(=O)CCCCCCCCCCO1
inactive: EKVX > 100 µM | SF-268 > 100 µM | NCI-H23 > 100 µM | SNB-75 > 100 µM | K562 > 100 µM | UACC-62 > 100 µM | HT-29 > 100 µM | A498 > 100 µM | SF-539 > 100 µM | SK-MEL-2 > 100 µM | HCC 2998 > 100 µM | CCRF-CEM > 100 µM | HOP-62 > 100 µM | ACHN > 100 µM | NCI-H522 > 100 µM | HOP-92 > 100 µM | OVCAR-5 > 100 µM | HCT-116 > 100 µM

COC(=O)c1ccc(NCc2cc(OC)ccc2OC)cc1
inactive: EKVX 80 µM | SF-268 > 100 µM | NCI-H23 65 µM | RPMI-8226 65.8 µM | SNB-75 34.2 µM | K562 35.6 µM | UACC-62 44.8 µM | HT-29 28.8 µM | A498 26.2 µM | SF-539 68.5 µM | SK-MEL-2 54.6 µM | HCC 2998 67.6 µM | MOLT-4 33.3 µM | CCRF-CEM 42.1 µM | ACHN 34.5 µM | NCI-H522 38.4 µM | HOP-92 42.7 µM | OVCAR-5 > 100 µM | HCT-116 45 µM

Nc1ccc2c(c1)C1=NNC(=O)CC1C2 (configuration not stated)
inactive: EKVX > 100 µM | SF-268 > 100 µM | NCI-H23 > 100 µM | RPMI-8226 > 40.4 µM | SNB-75 78.5 µM | K562 > 100 µM | UACC-62 > 100 µM | HT-29 > 100 µM | A498 60.4 µM | SF-539 > 100 µM | SK-MEL-2 > 100 µM | HCC 2998 > 74.1 µM | CCRF-CEM > 100 µM | HOP-62 > 100 µM | NCI-H522 > 100 µM | HOP-92 > 100 µM | OVCAR-5 > 92.5 µM | HCT-116 > 100 µM

O=C(c1ccccc1)c1cc(Cl)ccc1NCn1nnc2ccccc21
inactive: EKVX > 100 µM | NCI-H23 > 100 µM | RPMI-8226 41.6 µM | SNB-75 35.1 µM | K562 34.6 µM | UACC-62 > 100 µM | HT-29 51.1 µM | A498 65.2 µM | SF-539 37.8 µM | SK-MEL-2 29 µM | HCC 2998 47.8 µM | MOLT-4 42.1 µM | CCRF-CEM 77.4 µM | HOP-62 > 100 µM | ACHN > 100 µM | NCI-H522 47.8 µM | HOP-92 91.4 µM

CC(C)N(C)C(=O)C12C3C4C1C1C2C3C41C#N (configuration not stated)
inactive: EKVX > 100 µM | SF-268 > 100 µM | NCI-H23 > 100 µM | SNB-75 7.64 µM | K562 > 100 µM | UACC-62 > 100 µM | HT-29 > 100 µM | A498 > 100 µM | SF-539 > 100 µM | SK-MEL-2 > 100 µM | HCC 2998 > 100 µM | MOLT-4 > 100 µM | CCRF-CEM > 100 µM | HOP-62 > 100 µM | ACHN > 100 µM | NCI-H522 > 100 µM | HOP-92 > 100 µM | OVCAR-5 > 100 µM | HCT-116 > 100 µM

c1ccc2c(c1)c1c(n2CCOCCCN2CCCCC2)CCCC1
inactive: EKVX 17.1 µM | SF-268 28.2 µM | NCI-H23 17.6 µM | RPMI-8226 31.1 µM | SNB-75 16 µM | K562 14 µM | HT-29 12 µM | A498 25.8 µM | SF-539 15.7 µM | SK-MEL-2 18.7 µM | HCC 2998 18 µM | MOLT-4 4.36 µM | HOP-62 16.3 µM | ACHN 15.1 µM | NCI-H522 15.3 µM | HOP-92 22.7 µM | OVCAR-5 13.1 µM

Cc1nc(N(CCO)CCO)c2sc(=S)n(-c3ccccc3)c2n1
inactive: SF-268 > 100 µM | NCI-H23 > 100 µM | RPMI-8226 > 100 µM | SNB-75 10.8 µM | K562 > 100 µM | UACC-62 > 100 µM | HT-29 > 100 µM | A498 > 100 µM | SF-539 > 100 µM | SK-MEL-2 > 100 µM | HCC 2998 > 100 µM | MOLT-4 > 100 µM | CCRF-CEM > 100 µM | HOP-62 > 100 µM | ACHN > 100 µM | NCI-H522 > 100 µM | HOP-92 > 100 µM | OVCAR-5 > 100 µM | HCT-116 > 100 µM

O=C1c2cc3c(cc2CC12Cc1ccc4c(c1C2=O)CCC4)CCCC3 (configuration not stated)
inactive: EKVX > 100 µM | SF-268 > 100 µM | NCI-H23 > 100 µM | RPMI-8226 > 100 µM | SNB-75 5.7 µM | K562 > 100 µM | HT-29 > 100 µM | A498 > 100 µM | SF-539 > 100 µM | SK-MEL-2 > 100 µM | HCC 2998 > 100 µM | MOLT-4 > 100 µM | CCRF-CEM > 100 µM | HOP-62 > 100 µM | ACHN > 100 µM | NCI-H522 > 100 µM | HOP-92 > 100 µM | OVCAR-5 > 100 µM | HCT-116 > 100 µM

O=C1C2C3SC(c4cc5ccccc5cc43)C2C(=O)N1c1ccccc1 (configuration not stated)
inactive: EKVX > 100 µM | SF-268 > 100 µM | NCI-H23 98.9 µM | RPMI-8226 > 100 µM | SNB-75 19.8 µM | K562 > 100 µM | UACC-62 95.1 µM | HT-29 > 100 µM | A498 41.8 µM | SF-539 85.3 µM | SK-MEL-2 77.1 µM | HCC 2998 > 100 µM | MOLT-4 > 100 µM | CCRF-CEM > 100 µM | ACHN 48.5 µM | NCI-H522 75.7 µM | HOP-92 30.1 µM | OVCAR-5 > 100 µM | HCT-116 > 100 µM
